# Experimental data: US20240368139A1, “NOVEL MODULATORS OF EHMT1 AND EHMT2 AND THERAPEUTIC USE THEREOF” (Tango Therapeutics, Inc., priority 2021, published 2024)
# Tested on: H3K9me2 in HCT116 cells
# Test: HCT116 H3K9me2 in-cell western assay
# Type: cell-based
# Settings: Homo sapiens, HCT-116, 72 h, HCT116 cells, 72 hours incubation; read-out: H3K9me2 ICW IC50
# Description: HCT116 cell line was purchased from ATCC (Manassas, VA, USA). […] Penicillin-Streptomycin and heat inactivated fetal bovine serum were purchased from Hyclone (Logan, UT, USA). DPBS, Corning^R were purchased from VWR (Radnor, PA, USA). Triton′ X-100 was purchased from Sigma (St. Louis, MO, USA). Intercept blocking buffer, DRAQ5, Licor Odyssey Infrared Scanner were purchased from Licor Biosciences (Lincoln, NB, USA). Plate washer was purchased from BioTek (Winooski, VT, USA). […] 16% Paraformaldehyde was purchased from Electron Microscopy Sciences (Hatfield, PA, USA). HCT116 cells were maintained in complete growth medium (RPMI supplemented with 10% heat inactivated fetal bovine serum, 1% Penicillin-Streptomycin) and cultured at 37° C. under 5% CO2. N^2-(4-methoxy-3-(3-(pyrrolidin-1-yl)propoxy)phenyl)-N^4,6-dimethyl]pyrimidine-2,4-diamine (synthesis disclosed in International Application WO2017181177A1) was used as a control compound.
# HCT116 cells (ATCC) were trypsinized, counted and seeded in assay medium (RPMI supplemented with 10% heat inactivated fetal bovine serum, 1% Penicillin-Streptomycin) at a concentration of 2,000 cells per well to a 384-well cell culture plate with compounds in 50 μl per well. Plates were incubated with at 37° C. under 5% CO2 for 72 hours. After the incubation, 50 μl per well of 8% paraformaldehyde in PBS was added to the plates and incubated at room temperature for 20 minutes. Plates were transferred to a BioTek (EL406) plate washer and washed 5 times with 110 μl per well of wash buffer (1×PBS containing 0.1% Triton X-100). The plates were next blocked with 50 μl of Intercept blocking buffer for 1 hour at room temperature. Blocking buffer was removed and 30 μl per well of monoclonal primary antibody of H3K9me2 (CST) diluted 1:200 in Intercept blocking buffer were added and plates were incubated overnight at 4° C. The plates were then washed 5 times with 110 μl per well of wash buffer (1×PBS containing 0.1% Triton X-100). Next 30 μl per well of secondary was added (1:400 800 CW goat anti-rabbit IgG in blocking buffer) with 1:1000 DRAQ5 in blocking buffer and incubated for 2 hours at room temperature. The plates were washed 5 times with 110 μl per well of wash buffer (1×PBS containing 0.1% Triton X-100) then with 100 μl per well of water once. Plates were allowed to dry at room temperature then imaged on a Licor Odyssey Infrared Scanner which measured integrated intensity at 700 nm and 800 nm wavelength. Both 700 and 800 channels were scanned.
# The average of the ratio values (800 nm/700 nm) for each well was calculated and used to determine the percentage for each test well in the plate. Compounds were serially diluted two-fold in 0.1% DMSO for a total of 10 test concentrations beginning at 10 μM. IC50 curves were generated using duplicate wells per concentration of compound. […] IC50 values were calculated using a non-linear regression of Prism.
row,IC50 [nM],Compound
1,< 100,"CNc1cc(C)nc(Nc2cc3c(c(C4=CCN(C)CC(O)C4)c2Cl)OCCC3)n1 (single isomer, unassigned) [Compound 402]"
2,100 to 500,"CNc1cc(C)nc(Nc2cc3c(c(C4=CCN(C)CCC4)c2F)OCCC3C)n1 (single isomer, unassigned) [Compound 406]"
3,< 100,"CNc1cc(C)nc(Nc2cc3c(c(C4=CCNCC(O)C4)c2Cl)OCCC3)n1 (single isomer, unassigned) [Compound 407]"
4,< 100,"CNc1cc(C)nc(Nc2cc3c(c(C4=CCNCCC4)c2F)OCCC3C)n1 (single isomer, unassigned) [Compound 414]"
5,< 100,"CNc1cc(C)nc(Nc2cc3c(c(C4=CCNCCC4)c2F)OCC[C@@H]3C)n1 (single isomer, unassigned) [Compound 415]"
6,100 to 500,Cc1cc(N(C)C)nc(Nc2cc3c(c(C4=CCNCCC4)c2)OCC3)n1 [Compound 138]

# Target: T1, human EHMT1 982-1266 (Homo sapiens, UniProt Q9H9B1)
# T1 sequence (Q9H9B1 982-1266): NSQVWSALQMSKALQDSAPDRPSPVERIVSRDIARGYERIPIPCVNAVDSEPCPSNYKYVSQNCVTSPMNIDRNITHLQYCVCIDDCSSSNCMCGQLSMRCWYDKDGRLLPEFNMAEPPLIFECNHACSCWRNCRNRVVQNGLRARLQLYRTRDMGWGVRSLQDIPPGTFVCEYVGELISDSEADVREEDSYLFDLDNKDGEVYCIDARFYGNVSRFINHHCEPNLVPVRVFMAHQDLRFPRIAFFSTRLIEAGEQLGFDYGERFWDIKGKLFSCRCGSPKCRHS
# Test: EHMT1 enzyme assay on histone peptide substrate (3H-SAM SPA)
# Settings: EHMT1 IC50, recombinant human EHMT1 982-1266, histone peptide substrate
row,IC50 [nM],Compound
1,500 to 2000,"CNc1cc(C)nc(Nc2cc3c(c(C4=CCNC(CO)CC4)c2F)OCC3)n1 (single isomer, unassigned) [Compound 159-a]"
2,< 100,"CNc1cc(C)nc(Nc2cc3c(c(C4=CCNC(CO)CC4)c2F)OCC3)n1 (single isomer, unassigned) [Compound 159]"
3,500 to 2000,"CNc1cc(C)nc(Nc2cc3c(c(C4=CCNC(C)CC4)c2Cl)OCCO3)n1 (single isomer, unassigned) [Compound 161-a]"
4,< 100,"CNc1cc(C)nc(Nc2cc3c(c(C4=CCNC(C)CC4)c2Cl)OCCO3)n1 (single isomer, unassigned) [Compound 161]"
5,500 to 2000,"CNc1cc(C)nc(Nc2cc3c(c(C4=CCNC(C)CC4)c2F)OCCC3)n1 (single isomer, unassigned) [Compound 162]"
6,500 to 2000,"CNc1cc(C)nc(Nc2cc3c(c(C4=CCNC(C)CC4)c2F)OCCO3)n1 (single isomer, unassigned) [Compound 163-a]"
7,< 100,"CNc1cc(C)nc(Nc2cc3c(c(C4=CCNC(C)CC4)c2F)OCCO3)n1 (single isomer, unassigned) [Compound 163]"
8,< 100,"CNc1cc(C)nc(Nc2cc3c(c(C4=CCNC(C)CC4)c2F)OCCC3)n1 (single isomer, unassigned) [Compound 164]"
9,100 to 500,"CNc1cc(C)nc(Nc2cc3c(c(C4=CCNCC(F)C4)c2F)OCC3)n1 (single isomer, unassigned) [Compound 168]"
10,100 to 500,"CNc1cc(C)nc(Nc2cc3c(c(C4=CCNC(C)CC4)c2F)OCC3)n1 (single isomer, unassigned) [Compound 184]"
11,> 2000,"CNc1cc(C)nc(Nc2cc3c(c(C4=CCNC(C(F)F)CC4)c2F)OCC3)n1 (single isomer, unassigned) [Compound 354-a]"
12,< 100,"CNc1cc(C)nc(Nc2cc3c(c(C4=CCNC(C(F)F)CC4)c2F)OCC3)n1 (single isomer, unassigned) [Compound 354]"
13,500 to 2000,"CNc1cc(C)nc(Nc2cc3c(c(C4=CCNC(C)CC4)c2Cl)OCO3)n1 (single isomer, unassigned) [Compound 356-a]"

# Target: T2, human EHMT2 913-1193 (Homo sapiens, UniProt Q96KQ7)
# T2 sequence (Q96KQ7 913-1193): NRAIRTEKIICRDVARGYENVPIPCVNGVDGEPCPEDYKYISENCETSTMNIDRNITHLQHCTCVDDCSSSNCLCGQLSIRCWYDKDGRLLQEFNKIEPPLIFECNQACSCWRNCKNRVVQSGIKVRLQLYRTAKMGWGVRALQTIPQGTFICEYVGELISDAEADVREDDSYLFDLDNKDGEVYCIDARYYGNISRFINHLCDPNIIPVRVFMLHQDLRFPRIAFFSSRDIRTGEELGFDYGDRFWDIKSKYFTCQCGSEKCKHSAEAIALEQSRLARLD
# Test: EHMT2 enzyme assay on histone peptide substrate (3H-SAM SPA)
# Settings: EHMT2 IC50, recombinant human EHMT2 913-1193, histone peptide substrate
row,IC50 [nM],Compound
1,> 2000,"CNc1cc(C)nc(Nc2cc3c(c(C4=CCNC(CO)CC4)c2F)OCC3)n1 (single isomer, unassigned) [Compound 159-a]"
2,100 to 500,"CNc1cc(C)nc(Nc2cc3c(c(C4=CCNC(CO)CC4)c2F)OCC3)n1 (single isomer, unassigned) [Compound 159]"
3,> 2000,"CNc1cc(C)nc(Nc2cc3c(c(C4=CCNC(C)CC4)c2Cl)OCCO3)n1 (single isomer, unassigned) [Compound 161-a]"
4,< 100,"CNc1cc(C)nc(Nc2cc3c(c(C4=CCNC(C)CC4)c2Cl)OCCO3)n1 (single isomer, unassigned) [Compound 161]"
5,500 to 2000,"CNc1cc(C)nc(Nc2cc3c(c(C4=CCNC(C)CC4)c2F)OCCC3)n1 (single isomer, unassigned) [Compound 162]"
6,> 2000,"CNc1cc(C)nc(Nc2cc3c(c(C4=CCNC(C)CC4)c2F)OCCO3)n1 (single isomer, unassigned) [Compound 163-a]"
7,< 100,"CNc1cc(C)nc(Nc2cc3c(c(C4=CCNC(C)CC4)c2F)OCCO3)n1 (single isomer, unassigned) [Compound 163]"
8,< 100,"CNc1cc(C)nc(Nc2cc3c(c(C4=CCNC(C)CC4)c2F)OCCC3)n1 (single isomer, unassigned) [Compound 164]"
9,100 to 500,"CNc1cc(C)nc(Nc2cc3c(c(C4=CCNCC(F)C4)c2F)OCC3)n1 (single isomer, unassigned) [Compound 168]"
10,500 to 2000,"CNc1cc(C)nc(Nc2cc3c(c(C4=CCNC(C)CC4)c2F)OCC3)n1 (single isomer, unassigned) [Compound 184]"
11,> 2000,"CNc1cc(C)nc(Nc2cc3c(c(C4=CCNC(C(F)F)CC4)c2F)OCC3)n1 (single isomer, unassigned) [Compound 354-a]"
12,100 to 500,"CNc1cc(C)nc(Nc2cc3c(c(C4=CCNC(C(F)F)CC4)c2F)OCC3)n1 (single isomer, unassigned) [Compound 354]"
13,> 2000,"CNc1cc(C)nc(Nc2cc3c(c(C4=CCNC(C)CC4)c2Cl)OCO3)n1 (single isomer, unassigned) [Compound 356-a]"
